Measured values reported in patent US10508120B2, “TYK2 inhibitors and uses thereof” (Nimbus Lakshmi, Inc., priority 2017, dated 2019).

Tests used:
[1] = target: JAK2/JAK2 homdimeric complex (Homo sapiens (Human), UniProt O60674); assay: GM-CSF Induced pSTAT5 in Human PBMC; type: cell-based; settings: GM-CSF 5 ng/mL for 20 minutes, pSTAT5 by MSD, read-out: PBMC_GMCSF_pSTAT5 IC50
[2] = target: human TYK2 (JH2domain-pseudokinase) (Homo sapiens (Human), UniProt P29597); assay: TYK2 JH2 Domain Binding Assay (KINOMEscan)
Procedure, shortened: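 Competition binding of an NFkB-DBD fusion of human TYK2 JH2 (G556–D888), expressed in HEK293 and used as crude extract at <0.1 nM, against immobilized ligand beads; 1 h at room temperature in PBS/Tween/DTT/BSA buffer, 0.9% DMSO.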

JAK2 kinase domain (JH1) = JAK2 kinase domain (JH1) (Homo sapiens (Human), UniProt O60674); assay: JAK2 Radioactive Kinase Assay; type: biochemical; settings: compound at 10 μM, ATP 10 μM; for inhibition at 10 µM: read-out: JAK2 JH1% Inhibition @ 10 μM
Procedure, shortened: (§1)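 Each kinase domain is incubated with test compound at 10 μM. Activity is then measured radiometrically and expressed as percent inhibition relative to uninhibited enzyme.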

[3] = target: Tyk2/JAK2 (heterodimeric complex) (Homo sapiens (Human), UniProt P29597); assay: IL-12 Induced pSTAT4 in Human PBMC; type: cell-based; settings: 1.7 ng/mL IL-12
Description: The IL-12 Induced pSTAT4 assay evaluates the inhibition of IL-12 induced STAT4 phophorylation mediated by Tyk2/JAK2 (heterodimeric complex).

Tyk2 kinase domain (DH1) = Tyk2 kinase domain (DH1) (Homo sapiens (Human), UniProt P29597); assay: Tyk2 Radioactive Kinase Assay; type: biochemical; settings: compound at 10 μM, ATP 10 μM; for inhibition at 10 µM: read-out: Tyk2 JH1% Inhibition @ 10 μM
Procedure, shortened: as §1

Tyk2 kinase domain (DH1), sequence (P29597 897-1176): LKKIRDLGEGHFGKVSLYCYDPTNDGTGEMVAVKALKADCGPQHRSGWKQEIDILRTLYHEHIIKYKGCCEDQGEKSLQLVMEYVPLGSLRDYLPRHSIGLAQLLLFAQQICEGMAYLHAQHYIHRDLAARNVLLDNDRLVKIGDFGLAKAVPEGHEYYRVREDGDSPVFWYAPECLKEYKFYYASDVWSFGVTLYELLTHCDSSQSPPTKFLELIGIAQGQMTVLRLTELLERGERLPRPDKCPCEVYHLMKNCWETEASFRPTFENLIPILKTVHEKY
Tyk2/JAK2 (heterodimeric complex), sequence (P29597 whole entry, other chains not shown): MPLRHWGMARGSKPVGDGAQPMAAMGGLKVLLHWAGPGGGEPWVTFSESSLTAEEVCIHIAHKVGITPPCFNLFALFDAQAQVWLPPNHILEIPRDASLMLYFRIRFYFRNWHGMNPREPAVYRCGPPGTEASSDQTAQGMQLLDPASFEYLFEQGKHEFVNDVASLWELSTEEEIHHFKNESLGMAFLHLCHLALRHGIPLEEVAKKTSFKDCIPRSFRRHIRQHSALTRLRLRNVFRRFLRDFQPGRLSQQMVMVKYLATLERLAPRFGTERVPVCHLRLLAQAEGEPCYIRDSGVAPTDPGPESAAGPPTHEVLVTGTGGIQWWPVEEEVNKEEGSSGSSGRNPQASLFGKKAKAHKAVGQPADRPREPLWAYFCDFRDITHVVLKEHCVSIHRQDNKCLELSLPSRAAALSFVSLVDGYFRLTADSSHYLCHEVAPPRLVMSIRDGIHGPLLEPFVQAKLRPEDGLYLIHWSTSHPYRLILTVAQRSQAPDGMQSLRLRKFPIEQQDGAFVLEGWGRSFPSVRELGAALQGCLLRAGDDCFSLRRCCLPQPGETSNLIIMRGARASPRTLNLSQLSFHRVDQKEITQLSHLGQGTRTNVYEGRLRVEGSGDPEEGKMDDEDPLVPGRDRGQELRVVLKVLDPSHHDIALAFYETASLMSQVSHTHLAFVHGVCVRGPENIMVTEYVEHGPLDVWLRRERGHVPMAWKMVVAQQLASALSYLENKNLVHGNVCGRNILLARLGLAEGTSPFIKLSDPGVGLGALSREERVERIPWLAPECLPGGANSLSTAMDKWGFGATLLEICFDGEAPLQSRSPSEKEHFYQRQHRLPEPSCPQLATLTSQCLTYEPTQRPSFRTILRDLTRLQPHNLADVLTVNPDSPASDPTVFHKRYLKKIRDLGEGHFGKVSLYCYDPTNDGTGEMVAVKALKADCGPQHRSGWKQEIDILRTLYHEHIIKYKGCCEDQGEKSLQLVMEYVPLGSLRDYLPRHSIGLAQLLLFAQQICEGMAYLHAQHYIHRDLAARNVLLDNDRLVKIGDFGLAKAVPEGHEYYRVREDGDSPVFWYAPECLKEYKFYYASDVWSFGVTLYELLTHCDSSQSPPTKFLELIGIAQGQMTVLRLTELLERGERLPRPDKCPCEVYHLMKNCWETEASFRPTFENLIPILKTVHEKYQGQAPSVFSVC
JAK2 kinase domain (JH1), sequence (O60674 849-1124): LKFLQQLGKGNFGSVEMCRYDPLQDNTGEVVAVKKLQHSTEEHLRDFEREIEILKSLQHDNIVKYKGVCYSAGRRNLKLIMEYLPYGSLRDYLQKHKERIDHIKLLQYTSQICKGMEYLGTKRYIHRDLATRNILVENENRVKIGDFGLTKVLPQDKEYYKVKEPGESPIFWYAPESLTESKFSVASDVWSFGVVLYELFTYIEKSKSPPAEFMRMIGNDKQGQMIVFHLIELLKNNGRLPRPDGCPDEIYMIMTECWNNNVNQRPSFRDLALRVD
human TYK2 (JH2domain-pseudokinase), sequence (P29597 556-888): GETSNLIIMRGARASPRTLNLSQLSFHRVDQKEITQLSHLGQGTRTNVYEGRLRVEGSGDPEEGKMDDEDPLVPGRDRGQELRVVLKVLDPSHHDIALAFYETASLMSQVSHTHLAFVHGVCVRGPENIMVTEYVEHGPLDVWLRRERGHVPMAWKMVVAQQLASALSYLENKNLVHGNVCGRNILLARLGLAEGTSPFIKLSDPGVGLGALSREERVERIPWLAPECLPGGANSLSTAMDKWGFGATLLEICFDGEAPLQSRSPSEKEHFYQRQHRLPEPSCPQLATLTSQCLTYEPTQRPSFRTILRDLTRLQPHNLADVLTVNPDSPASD
JAK2/JAK2 homdimeric complex, sequence (O60674 whole entry, the tested form may be a part): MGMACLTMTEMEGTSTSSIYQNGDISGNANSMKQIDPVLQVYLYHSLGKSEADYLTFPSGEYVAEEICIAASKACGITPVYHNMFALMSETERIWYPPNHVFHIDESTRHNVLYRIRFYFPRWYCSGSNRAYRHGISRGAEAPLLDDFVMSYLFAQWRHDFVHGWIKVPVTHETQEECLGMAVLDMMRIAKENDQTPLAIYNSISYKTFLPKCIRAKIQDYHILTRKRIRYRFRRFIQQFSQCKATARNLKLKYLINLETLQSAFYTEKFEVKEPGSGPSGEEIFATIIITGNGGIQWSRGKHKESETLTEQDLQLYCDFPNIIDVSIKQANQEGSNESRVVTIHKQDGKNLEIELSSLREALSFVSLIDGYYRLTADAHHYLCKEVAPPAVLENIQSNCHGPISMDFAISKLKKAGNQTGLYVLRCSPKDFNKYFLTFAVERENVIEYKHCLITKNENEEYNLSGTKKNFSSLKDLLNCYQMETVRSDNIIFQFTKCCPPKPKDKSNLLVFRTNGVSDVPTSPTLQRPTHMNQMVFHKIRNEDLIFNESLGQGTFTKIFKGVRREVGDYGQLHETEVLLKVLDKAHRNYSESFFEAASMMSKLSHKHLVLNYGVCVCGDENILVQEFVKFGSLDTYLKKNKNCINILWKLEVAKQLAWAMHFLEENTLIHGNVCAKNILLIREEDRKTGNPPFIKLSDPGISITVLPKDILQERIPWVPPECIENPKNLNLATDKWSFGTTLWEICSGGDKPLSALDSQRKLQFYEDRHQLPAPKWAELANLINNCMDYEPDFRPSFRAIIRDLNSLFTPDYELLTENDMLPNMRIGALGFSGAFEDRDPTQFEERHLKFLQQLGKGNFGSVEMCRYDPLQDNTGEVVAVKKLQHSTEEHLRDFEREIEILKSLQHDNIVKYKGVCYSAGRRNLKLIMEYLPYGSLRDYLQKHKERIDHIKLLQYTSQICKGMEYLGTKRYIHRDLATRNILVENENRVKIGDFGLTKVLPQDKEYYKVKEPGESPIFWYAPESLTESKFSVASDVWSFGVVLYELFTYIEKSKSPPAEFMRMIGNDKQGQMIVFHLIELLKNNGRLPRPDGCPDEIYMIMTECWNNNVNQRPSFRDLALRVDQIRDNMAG
JAK2/JAK2 homdimeric complex, sequence (P32927 17-897 partner): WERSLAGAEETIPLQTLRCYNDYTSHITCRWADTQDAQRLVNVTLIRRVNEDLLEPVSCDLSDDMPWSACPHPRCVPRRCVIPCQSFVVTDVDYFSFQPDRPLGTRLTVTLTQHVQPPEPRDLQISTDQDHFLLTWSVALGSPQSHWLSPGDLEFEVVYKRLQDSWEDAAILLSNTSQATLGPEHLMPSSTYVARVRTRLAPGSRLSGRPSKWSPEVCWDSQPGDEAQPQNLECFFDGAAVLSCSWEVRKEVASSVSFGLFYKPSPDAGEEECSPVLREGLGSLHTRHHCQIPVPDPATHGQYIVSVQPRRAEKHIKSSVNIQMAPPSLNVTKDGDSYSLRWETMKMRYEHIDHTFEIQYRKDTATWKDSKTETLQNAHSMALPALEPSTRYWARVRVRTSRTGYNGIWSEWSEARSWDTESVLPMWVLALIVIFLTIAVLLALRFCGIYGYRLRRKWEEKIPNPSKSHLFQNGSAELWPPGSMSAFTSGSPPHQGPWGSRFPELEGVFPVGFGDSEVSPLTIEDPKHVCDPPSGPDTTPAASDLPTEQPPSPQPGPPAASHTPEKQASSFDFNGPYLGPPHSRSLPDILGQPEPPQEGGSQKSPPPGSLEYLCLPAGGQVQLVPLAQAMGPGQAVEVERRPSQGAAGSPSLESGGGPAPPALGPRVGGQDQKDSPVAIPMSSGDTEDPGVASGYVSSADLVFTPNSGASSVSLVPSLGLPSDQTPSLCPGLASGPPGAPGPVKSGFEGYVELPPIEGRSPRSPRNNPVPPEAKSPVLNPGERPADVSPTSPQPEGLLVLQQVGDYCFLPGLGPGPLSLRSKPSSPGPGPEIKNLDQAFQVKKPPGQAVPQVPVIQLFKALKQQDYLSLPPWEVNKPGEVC

| IC50 [1] [nM] | Kd [2] [nM] | inhibition at 10 µM (JAK2 kinase domain (JH1)) [%] | IC50 [3] [nM] | inhibition at 10 µM (Tyk2 kinase domain (DH1)) [%] | SMILES | JAK2 JH1% Inhibition @ 10 μM (JAK2 kinase domain (JH1)) | Tyk2 JH1% Inhibition @ 10 μM (Tyk2 kinase domain (DH1)) |
| --- | --- | --- | --- | --- | --- | --- | --- |
| > 50000 | < 0.2 | < 50 | < 100 | < 50 | [2H]C([2H])([2H])Oc1ncccc1Nc1cc(NC)n2ncc(C(=O)NCC(C)(C)CO)c2n1 [I-347] |  |  |
| > 50000 | < 0.2 | < 50 | < 100 | < 50 | CNc1cc(Nc2cccnc2OC2CC2)nc2c(C(=O)NCC(C)(C)CO)cnn12 [I-350] |  |  |
| > 50000 | < 0.2 | < 50 | < 100 | < 50 | CNc1cc(Nc2cccn([C@H]3CCCOC3)c2=O)nc2c(C(=O)NC3CC3)cnn12 [I-352] |  |  |
| > 50000 | < 0.2 | < 50 | < 100 | < 50 | CNc1cc(Nc2cccn([C@H]3CC[C@@](C)(OC)CC3)c2=O)nc2c(C(=O)N[C@H]3C[C@H]3F)cnn12 [I-360] |  |  |
| > 50000 | < 0.2 | < 50 | < 100 | < 50 | CNc1cc(Nc2cccn([C@H]3CC[C@](C)(OC)CC3)c2=O)nc2c(C(=O)N[C@H]3C[C@H]3F)cnn12 [I-362] |  |  |
| > 50000 | < 0.2 | < 50 | < 100 | < 50 | [2H]C([2H])([2H])Oc1ncccc1Nc1cc(NC)n2ncc(C(=O)N[C@H]3CC[C@@H]3O)c2n1 [I-373] |  |  |
| > 50000 | < 0.2 | < 50 | < 100 | < 50 | CNc1cc(Nc2cccn(-c3nc(C)co3)c2=O)nc2c(C(=O)NC3CCC3)cnn12 [I-386] |  |  |
| > 50000 | < 0.2 | < 50 | < 100 | < 50 | CNc1cc(Nc2cccnc2OC2CC2)nc2c(C(=O)NC3CCC3O)cnn12 (centres unmarked) [I-392, 5-((2-cyclopropoxypyridin-3-yl)amino)-N-(2-hydroxycyclobutyl)-7-(methylamino)pyrazolo[1,5-a]pyrimidine-3-carboxamide] |  |  |
| > 12500 | < 0.2 |  | < 100 |  | CNc1cc(Nc2cccnc2OC)nc2c(C(=O)N[C@H]3CC[C@@H]3O)cnn12 [I-395] | A (percent inhibition at 10 μM lower than 50) | A (percent inhibition at 10 μM lower than 50) |
| > 12500 | < 0.2 | < 50 | < 100 | < 50 | CNc1cc(Nc2cccn(-c3cnn(CC4CCOCC4)c3)c2=O)nc2c(C(=O)N[C@H]3C[C@H]3F)cnn12 [I-407] |  |  |
| > 12500 | < 0.2 | < 50 | < 100 | < 50 | CCONC(=O)c1cnn2c(NC)cc(Nc3cccnc3OC)nc12 [I-409, N-ethoxy-5-((2-methoxypyridin-3-yl)amino)-7-(methylamino)pyrazolo[1,5-a]pyrimidine-3-carboxamide] |  |  |
| > 50000 | < 0.2 |  | < 100 |  | [2H]C([2H])([2H])Oc1ncccc1Nc1cc(NC)n2ncc(C(=O)N[C@H]3CC[C@@H]3O)c2n1 [I-411] | A (percent inhibition at 10 μM lower than 50) | A (percent inhibition at 10 μM lower than 50) |
| > 50000 | < 0.2 | < 50 | < 100 | < 50 | CNc1cc(Nc2cccn(C3CCC4(CC3)OCCO4)c2=O)nc2c(C(=O)N[C@@H]3C[C@@H]3F)cnn12 [I-415, N-((1R,2S)-2-fluorocyclopropyl)-7-(methylamino)-5-((2-oxo-1-(1,4-dioxaspiro 14.51 decan-8-yl)-1,2-dihydropyridin-3-yl)amino)pyrazolo[1,5-a]pyrimidine-3-carboxamide] |  |  |

Continued, molecule first:

| SMILES | IC50 [1] [nM] | Kd [2] [nM] | inhibition at 10 µM (JAK2 kinase domain (JH1)) [%] | IC50 [3] [nM] | inhibition at 10 µM (Tyk2 kinase domain (DH1)) [%] | JAK2 JH1% Inhibition @ 10 μM (JAK2 kinase domain (JH1)) | Tyk2 JH1% Inhibition @ 10 μM (Tyk2 kinase domain (DH1)) |
| --- | --- | --- | --- | --- | --- | --- | --- |
| CNc1cc(Nc2cccn([C@H]3CC[C@H](OC)CC3)c2=O)nc2c(C(=O)NC3CCC3)cnn12 [I-345] | > 50000 | < 0.2 | < 50 | < 100 | < 50 |  |  |
| CNc1cc(Nc2cccnc2OC)nc2c(C(=O)NCC(C)(C)CO)cnn12 [I-346] | > 2500 | < 0.2 | < 50 | < 100 | < 50 |  |  |
| CNc1cc(Nc2cccn([C@H]3CCCOC3)c2=O)nc2c(C(=O)NC3CCC3)cnn12 [I-354] | > 2500 | < 0.2 | < 50 | < 100 | < 50 |  |  |
| CNc1cc(Nc2cccn([C@H]3CC[C@@H](OC)CC3)c2=O)nc2c(C(=O)N[C@H]3C[C@H]3F)cnn12 [I-357] | > 2500 | < 0.2 | < 50 | < 100 | < 50 |  |  |
| CNc1cc(Nc2cccn([C@H]3CC[C@@](C)(OC)CC3)c2=O)nc2c(C(=O)NC3CC3)cnn12 [I-359] | > 12500 | < 0.2 | < 50 | 100 to 500 | < 50 |  |  |
| CNc1cc(Nc2cccn(CC3CCCCO3)c2=O)nc2c(C(=O)N[C@H]3C[C@H]3F)cnn12 (some centres unmarked) [I-365] | > 50000 | < 0.2 | < 50 | < 100 | < 50 |  |  |
| CNc1cc(Nc2cccn(-c3nc(C)co3)c2=O)nc2c(C(=O)NC3CC3)cnn12 [I-368] | > 12500 | < 0.2 | < 50 | < 100 | < 50 |  |  |
| CNc1cc(Nc2cccn(-c3nc(C)co3)c2=O)nc2c(C(=O)N[C@H]3C[C@H]3F)cnn12 [I-369] | > 50000 | < 0.2 | < 50 | < 100 | < 50 |  |  |
| CNc1cc(Nc2cc(F)cn(-c3ccn(C)n3)c2=O)nc2c(C(=O)NC3CC3)cnn12 [I-378] | > 12500 | < 0.2 | < 50 | < 100 | < 50 |  |  |
| CNc1cc(Nc2cc(F)cn(-c3ccn(C)n3)c2=O)nc2c(C(=O)N[C@H]3C[C@H]3F)cnn12 [I-379] | > 2500 | < 0.2 | < 50 | < 100 | < 50 |  |  |
| CNc1cc(Nc2cc(F)cn(-c3cnn(C)c3)c2=O)nc2c(C(=O)NC3CC3)cnn12 [I-380] | > 12500 | < 0.2 | < 50 | < 100 | < 50 |  |  |
| CNc1cc(Nc2cc(F)cn(-c3cnn(C)c3)c2=O)nc2c(C(=O)N[C@H]3C[C@H]3F)cnn12 [I-381] | > 12500 | < 0.2 | < 50 | < 100 | < 50 |  |  |
| CNc1cc(Nc2cc(F)cn(-c3cc(C)n(C)n3)c2=O)nc2c(C(=O)NC3CC3)cnn12 [I-384] | > 300 | < 0.2 | < 50 | < 100 | < 50 |  |  |
| CNc1cc(Nc2cc(F)cn(-c3cc(C)n(C)n3)c2=O)nc2c(C(=O)N[C@H]3C[C@H]3F)cnn12 [I-385] | > 2500 | < 0.2 | < 50 | < 100 | < 50 |  |  |
| CNc1cc(Nc2cccnc2OC)nc2c(C(=O)NC3CCC3O)cnn12 (centres unmarked) [I-390, N-(2-hydroxycyclobutyl)-5-((2-methoxypyridin-3-yl)amino)-7-(methylamino) pyrazolo[1,5-a]pyrimidine-3-carboxamide] | > 50000 | < 0.2 | < 50 | < 100 | < 50 |  |  |
| CNc1cc(Nc2cccn(C3CCC4(CC3)OCCO4)c2=O)nc2c(C(=O)NC3CC3)cnn12 [I-393] | > 12500 | < 0.2 | < 50 | < 100 | < 50 |  |  |
| CNc1cc(Nc2cccnc2OC)nc2c(C(=O)N[C@@H]3CC[C@H]3O)cnn12 [I-396] | > 50000 | < 0.2 | < 50 | < 100 | < 50 |  |  |
| CNc1cc(Nc2cccnc2OC2CC2)nc2c(C(=O)N[C@@H]3CC[C@@H]3O)cnn12 [I-401] | > 12500 | < 0.2 | < 50 | < 100 | < 50 |  |  |
| CNc1cc(Nc2cccn(-c3cnn(CC4CCOCC4)c3)c2=O)nc2c(C(=O)NC3CC3)cnn12 [I-406] | > 12500 | < 0.2 | < 50 | 100 to 500 | < 50 |  |  |
| [2H]C([2H])([2H])Oc1ncccc1Nc1cc(NC)n2ncc(C(=O)N[C@@H]3CC[C@H]3O)c2n1 [I-410] | > 12500 | < 0.2 | 50 to 70 | < 100 | < 50 |  |  |
| CNc1cc(Nc2cccn(C[C@@H]3CCCCO3)c2=O)nc2c(C(=O)NC3CC3)cnn12 [I-413] | > 50000 | < 0.2 | < 50 | < 100 | < 50 |  |  |
